Laboratory results published in patent publication US20170182108A1, “FERMENTED FOOD EXTRACT COMPOSITION” (priority 2014, published 2017).
Where two headings read alike, the source gives them in different places.

How the values were obtained:
[1] = system: systolic blood pressure of SHRs; assay: single oral administration test to SHRs (blood pressure by tail cuff method); assay type: in vivo, rat (spontaneously hypertensive rat; details: single oral 10^−11 mol/kg, SHR; for maximum decrease in systolic blood pressure: 9 h after administration, compared to the control group; for blood pressure effect compared to the control group: measured 3, 6, 9 and 24 h after administration
Experimental: Animal experiments were carried out according to the animal experiment guidelines of Shinshu University. In the present study, spontaneously hypertensive rats of 10-13 week-old males (SHR/NCrlCrlj, Charles River Laboratories Japan, Yokohama) were used as an experimental animal. SHRs were bred in individual cages in a breeding room controlled with a light-dark cycle of […] and a room temperature of 22-23° C. In acclimation breeding, rat standard diet (MF; Charles River Laboratories) and tap water were fed ad libitum. SHRs are a rat strain that has been isolated in 1963 by selection mating from Wistar-Kyoto rats that had been bred in the animal experimentation center of Kyoto University. They are referred to as spontaneously hypertensive rats or essential hypertensive rats; while systolic blood pressure of the separation maternal. Wistar-Kyoto rats is approximately 135 mmHg for mature males and approximately 132 mmHg for mature females, blood pressure of almost all the SHRs becomes 150 mmHg or higher at 2 months from the birth, and reaches almost a maximum value at 4-5 months, with many of the values showing 180-210 mmHg. In general, as a model animal of essential hypertension that s said to be account for approximately 90% of the hypertension in humans, SHRs have been used to elucidate pharmacological effects and food functions, and a mechanism of blood pressure rise.
Single oral administration test was carried out using male 12-week-old SHRs with a body weight of 280-320 g. After acclimation breeding for 1 week, the rats were fasted for 12 h, and a sample was given to the rats by a single oral administration. The sample to be administered was dissolved in pure water, and given by a single oral administration with a dose of 10^−11 mol/kg (b.w.) to each 6 SHRs. Sample aqueous solutions of purified acetylcholine, propionylcholine and butyrylcholine were acidic, with a pH of 4.7, 4,3, and 4.4, respectively. To the control group, pure water was administered. Changes in the systolic blood pressure and diastolic blood pressure were measured using non-invasive blood pressure measuring instrument Softron BP-98A (Softron Co., Ltd., Tokyo) by tail cuff method, before administration and at 3, 6, 9, and 24 h after administration. Results of the single oral administration test of purified acetylcholine, propionylcholine and butyrylcholine were shown in FIG. 7.

[2] = system: thoracic aorta specimens of SHRs; assay: measurement test of isometric tension in blood vessels (vasodilatory effect on phenylephrine-constricted ring specimens); assay type: cell-based, rat (spontaneously hypertensive rat, SHR); set-up: dilation rate: dose or concentration left out as unconfirmed; details: for concentration from which a vasodilatory effect / dilation reaction is shown: cumulative addition
Experimental: In the examination of each condition, concentration of the active ingredient was checked by identifying fractions showing vasodilatory effect by measurement test of isometric tension in blood vessels at each purification stage.
Thoracic aorta used for the test was removed from a male 10-12 week-old SHR; after removal of the connective tissue, it was cut into a length 2-3 mm to produce ring specimens. The resulting ring specimens were attached to an organ bus filled with Krebs solution of 37° C. (119 mM NaCl/4.7 mM KCl/1.1 mM KH2PO4/1.2 mM MgSO4/25 mM NaHCO3, pH 7.4) in which a mixed gas of 95% O2-5% CO2 was aerated, then a static tension of 1.5 g was applied (UFER UC-05A; Iwashiya Kishimoto Ika Sangyo K.K., Kyoto). Vascular tension was measured by UFER UM-203 transducer (Iwashiya Kishimoto Ika Sangyo). After 60-min incubation from the attachment, the ring specimens were constricted using a vasoconstrictor phenylephrine (final concentration of 0.30 μM). To the constricted ring specimens, commercially available acetylcholine, that is an endothelium-dependent vasodilator (final concentration of 100 μM) was added, and presence/absence of vascular endothelium was determined by presence/absence of vasodilatory effect. Then, the ring specimens were washed with Krebs solution to remove the drugs, incubated at static tension for 10 min, and again constricted by 0.30 μM phenylephrine.

SMILES	maximum decrease in systolic blood pressure [1] [mmHg]	EC50 ([2]; Rattus norvegicus, hydrochloride salt, summary sentence b69, read-out: EC50 of vasodilatory effect (unit inferred)) [nM]	EC50 ([2]; Rattus norvegicus, hydrochloride salts, cumulative addition 10^−9 to 10^−4 M, read-out: EC50 of vasodilatory effect) [nM]	maximum dilation rate ([2]; at 10^−6 M) [%]	dilation rate ([2]; at the addition) [%]	concentration from which a vasodilatory effect / dilation reaction is shown ([2]; hydrochloride salts)	blood pressure effect compared to the control group [1]	dilation ([2]; at the addition of 10^−4 M) [%]	maximum dilation rate ([2]; at 10^−4 M) [%]	EC50 ([2]; hydrochloride salts, cumulative addition 10^−9 to 10^−4 M, read-out: EC50 of vasodilatory effect) [nM]
CC(=O)OCC[N+](C)(C)C [acetylcholine]	24.7	27.2	27.2	89.9	1.52	10^−9 M	–	–	–	–
CCCC(=O)OCC[N+](C)(C)C [butyrylcholine]	–	–	–	–	–	–	no significant decrease in blood pressure	7.14	–	–
CCC(=O)OCC[N+](C)(C)C [propionylcholine]	8.05	–	–	–	–	10^−7 M	significant vasodilatory effect	–	95.2	2270
